Results taken from patent publication US20060210479A1 (Dow Global Technologies Inc., priority 2004, published 2006).
Entries after “also recorded” stand apart in the source; their conditions may differ. Marks after values point to notes of the source that are not given here.

Key:
Caco-2 cells [1] = assay: Adsorption of chelate compounds to cells (HPLC and mass spectrometry); format: cell-based, human; conditions: for Adsorption Caco-2: 50 µM chelate compound, 0, 30 and 90 minutes at 37 °C, % adsorbed relative to time zero
From the text: (§1) As a prerequisite for the understanding of the functional attributes of Tb-PCTMB and Eu-QCTME for diagnostics and therapeutic purposes, and for other uses, it is useful to synthesize a series of chelate compounds that contain structural elements of both PCTMB and QCTME and test these compounds for adsorption and permeability to different cell lines. The first approach was to test for adsorption to a normal cell line (HEK293) and to two epithelial cancer cell lines (LNCaP and Caco-2). The second approach, described in this example, involves testing only the compounds that adsorbed in the cancer cell lines and not in the normal cell lines for permeability. Adsorption and permeability of the compounds to epithelial cancer cell lines and a normal cell line was measured through the detection of the compound by HPLC and mass spectrometry.
(§2) Cell cultures. LNCaP cell line is a human prostate carcinoma. Cells were grown in RPMI 1640 Medium supplemented 10% FBS, 2 mM L-glutamine, glucose (2 g/L) augmented with gentamicin (50 μg/mL), penicillin/streptomycin (100 IU/mL/100 μg/mL) and amphotericin B (2.5 μg/mL). Caco-2 cell line is a human colorectal carcinoma. These cells were grown in Eagle's Minimum Essential Medium supplemented with 20% FBS, Earle's BSS, 2 mM L-glutamine, 1.0 mM sodium pyruvate, 0.1 mM nonessential amino acids augmented with gentamicin (50 μg/mL), penicillin/streptomycin (100 IU/mL/100 μg/mL), and amphotericin B (2.5 μg/mL). The human kidney transformed cells HEK293 were grown in Eagle's Minimum Essential Medium (EMEM) supplemented with 10% (v/v) heat-inactivated fetal bovine serum, sodium pyruvate, nonessential amino acids and antibiotics in a humidified 5% CO2 atmosphere at 37° C. Medium and supplements were purchased from Gibco BRL (Grand Island, N.Y.) and all cell lines were obtained from ATCC.
(§3) Detection of chelate compounds for the determination of adsorption. Cells were grown to confluence in T-150 flasks (about 2×10^7 cells). Before treating with chelate compounds, cells were rinsed twice with warm 10 mM HEPES (Gibco BRL, Grand Island N.Y.), removed from the flask, and transferred to a 50-mL conical tube and centrifuged (400×g) for 5 minutes. The resulting cells were treated with individual chelate compounds with 50 µM of chelate compounds in 10 mM HEPES, pH 7.4, 5 mM KCl, 150 mM NaCl, 0.7 mM NaH2PO4 for 0, 30, and 90 minutes at 37 ° C. After treatment, cells were pelleted by centrifugation and the resulting solution was analyzed by a combination of HPLC and mass spectrometry.

HEK293 cells [2] = assay: as above; format: cell-based, human; conditions: for Adsorption HEK293: 50 µM chelate compound, 0, 30 and 90 minutes at 37 °C, % adsorbed relative to time zero
From the text: as §1, §2, §3

LNCaP cells [3] = assay: as above; format: cell-based, human; conditions: for Adsorption LNCaP: 50 µM chelate compound, 0, 30 and 90 minutes at 37 °C, % adsorbed relative to time zero
From the text: as §1, §2, §3

HEK293 cells [4] = assay: Permeability: detection of chelate compounds in the cytoplasm; format: cell-based, human; design: key: Absence = 0; presence = +; conditions: 50 μM, 90 minutes at 37 °C
Description: as §2
(§4) Detection of chelant compounds for the determination of permeability. Cells were grown to confluence in T-150 flasks (about 2×10^7 cells). Before treating with chelate compounds, cells were rinsed twice with warm 10 mM HEPES (Gibco BRL, Grand Island N.Y.), removed from the flask, and transferred to a 50-mL conical tube and centrifuged (400×g) for 5 minutes. The resulting cells were treated with individual chelate compounds with 50 μM of chelate compounds in 10 mM HEPES, pH 7.4, 5 mM KCl, 150 mM NaCl, 0.7 mM NaH2PO4 for 90 minutes at 37° C. After treatment, cells were pelleted by centrifugation, the cytoplasm was extracted by Mem-PER Eukaryotic Membrane Protein Extraction Reagent Kit as described by manufacturers (Pierce biotechnology, Rockford, Ill.) and the resulting solution was analyzed by a combination of HPLC and mass spectrometry (Table 8).

Caco-2 cells [5] = assay: as above; format: cell-based, human; design: key to Permeability Caco-2: Absence = 0; presence = +; conditions: for Permeability Caco-2: 50 μM, 90 minutes at 37 °C, detection in the cytoplasm; for detection within the cytoplasm: carcinoma cell line Caco-2
Description: as §2, §4

LNCaP cells [6] = assay: as above; format: cell-based, human; design: key to Permeability LNCaP: Absence = 0; presence = +; conditions: for Permeability LNCaP: 50 μM, 90 minutes at 37 °C, detection in the cytoplasm; for detection within the cytoplasm: carcinoma cell line LNCaP
Description: as §2, §4

Amphiphysin I = molecular target: T1, Amphiphysin I (Homo sapiens, UniProt P49418); assay: Elution and identification of target-chelate compound associations; format: binding
T1 construct: Caco-2 and LNCaP cell lines were lysed by sonication or by lysis in hypotonic buffer; endogenous in cells; host or cells: Caco-2 and LNCaP
T1 sequence (P49418 1-653 isoform P49418-2): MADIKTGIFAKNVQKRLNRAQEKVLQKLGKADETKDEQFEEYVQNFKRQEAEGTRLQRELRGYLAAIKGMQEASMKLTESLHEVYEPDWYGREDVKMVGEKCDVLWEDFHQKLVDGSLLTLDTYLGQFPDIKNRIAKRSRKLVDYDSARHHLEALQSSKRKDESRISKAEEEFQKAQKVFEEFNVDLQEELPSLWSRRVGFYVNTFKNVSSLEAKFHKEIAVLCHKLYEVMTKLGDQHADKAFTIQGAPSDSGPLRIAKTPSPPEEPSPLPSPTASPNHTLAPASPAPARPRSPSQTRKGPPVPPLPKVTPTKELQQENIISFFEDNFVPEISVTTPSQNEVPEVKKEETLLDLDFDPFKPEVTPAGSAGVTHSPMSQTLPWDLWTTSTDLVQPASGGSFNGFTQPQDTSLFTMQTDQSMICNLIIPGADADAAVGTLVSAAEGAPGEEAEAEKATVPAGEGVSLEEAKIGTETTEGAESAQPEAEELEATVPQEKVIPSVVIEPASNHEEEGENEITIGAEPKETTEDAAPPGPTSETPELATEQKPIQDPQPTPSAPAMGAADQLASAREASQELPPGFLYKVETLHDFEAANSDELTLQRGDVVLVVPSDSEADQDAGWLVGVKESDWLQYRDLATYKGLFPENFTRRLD
Description: (§5) Identification of novel target-chelate compound associations—Caco-2 and LNCaP cell lines were lysed by sonication or by lysis in hypotonic buffer. Soluble proteins were enriched and captured on an affinity support column. […] Proteins were eluted by adding different chelate compounds that compete for the bound ligand or change the steric structure of a given protein(s). Eluted samples were analyzed by high resolution SDS-PAGE. The protein-chelate compound associations were further analyzed to identify the different proteins by excising the corresponding protein bands from the gel, which was then treated with trypsin and purified. […]

BiP = molecular target: T2, BiP (Homo sapiens, UniProt P11021); assay: as above; format: binding
T2 construct: Caco-2 and LNCaP cell lines were lysed by sonication or by lysis in hypotonic buffer; endogenous in cells; host or cells: Caco-2 and LNCaP
T2 sequence (P11021 19-654): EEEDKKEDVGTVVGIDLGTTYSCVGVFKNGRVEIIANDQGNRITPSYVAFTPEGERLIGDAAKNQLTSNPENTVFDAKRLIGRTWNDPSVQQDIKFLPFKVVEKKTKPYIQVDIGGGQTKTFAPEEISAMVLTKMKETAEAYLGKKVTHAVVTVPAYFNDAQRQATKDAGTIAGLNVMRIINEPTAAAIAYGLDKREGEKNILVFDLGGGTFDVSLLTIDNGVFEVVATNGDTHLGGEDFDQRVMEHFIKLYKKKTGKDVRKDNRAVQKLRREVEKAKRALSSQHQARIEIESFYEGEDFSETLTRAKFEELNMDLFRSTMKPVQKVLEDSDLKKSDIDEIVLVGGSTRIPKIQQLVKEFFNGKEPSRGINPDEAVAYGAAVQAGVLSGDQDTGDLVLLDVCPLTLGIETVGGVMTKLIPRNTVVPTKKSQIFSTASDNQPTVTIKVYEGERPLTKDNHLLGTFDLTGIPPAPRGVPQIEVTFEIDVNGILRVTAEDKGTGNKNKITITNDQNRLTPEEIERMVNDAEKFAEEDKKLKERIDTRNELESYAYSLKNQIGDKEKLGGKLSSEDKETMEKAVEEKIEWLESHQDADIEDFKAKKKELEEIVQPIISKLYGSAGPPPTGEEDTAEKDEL
Description: as §5

[7] = Solubility of chelate compounds; conditions: <5% methanol, ethanol, or DMSO
Cytokeratin 8 = molecular target: T3, Cytokeratin 8 (Homo sapiens, UniProt P05787); assay: Elution and identification of target-chelate compound associations; format: binding
T3 construct: Caco-2 and LNCaP cell lines were lysed by sonication or by lysis in hypotonic buffer; endogenous in cells; host or cells: Caco-2 and LNCaP
T3 sequence (P05787 1-483): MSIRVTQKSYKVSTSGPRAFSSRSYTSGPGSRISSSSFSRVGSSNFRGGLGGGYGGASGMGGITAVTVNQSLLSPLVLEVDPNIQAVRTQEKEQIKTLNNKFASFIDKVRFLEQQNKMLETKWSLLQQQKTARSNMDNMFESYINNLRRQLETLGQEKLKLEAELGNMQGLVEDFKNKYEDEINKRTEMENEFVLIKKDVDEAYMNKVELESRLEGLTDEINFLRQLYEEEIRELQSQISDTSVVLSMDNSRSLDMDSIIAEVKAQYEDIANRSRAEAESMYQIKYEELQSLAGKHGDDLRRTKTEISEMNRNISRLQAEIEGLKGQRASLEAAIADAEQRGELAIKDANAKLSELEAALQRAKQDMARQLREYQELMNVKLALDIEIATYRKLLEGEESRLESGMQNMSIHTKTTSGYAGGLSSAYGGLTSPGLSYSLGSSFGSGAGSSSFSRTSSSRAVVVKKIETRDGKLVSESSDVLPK
T3 sequence (P05783 2-430 partner limits assumed): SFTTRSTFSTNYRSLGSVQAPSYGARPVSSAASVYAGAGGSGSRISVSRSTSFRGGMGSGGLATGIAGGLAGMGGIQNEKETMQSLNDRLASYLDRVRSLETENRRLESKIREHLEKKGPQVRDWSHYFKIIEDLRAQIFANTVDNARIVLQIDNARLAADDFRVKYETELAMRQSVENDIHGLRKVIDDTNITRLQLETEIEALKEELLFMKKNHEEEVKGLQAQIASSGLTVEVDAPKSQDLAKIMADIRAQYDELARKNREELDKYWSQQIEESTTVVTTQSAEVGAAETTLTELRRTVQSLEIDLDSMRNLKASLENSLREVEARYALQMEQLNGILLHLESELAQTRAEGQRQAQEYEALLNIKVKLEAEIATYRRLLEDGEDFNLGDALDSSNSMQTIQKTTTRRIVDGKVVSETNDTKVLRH
Description: as §5

Keratin 18 = molecular target: T4, Keratin 18 (Homo sapiens, UniProt P05783); assay: as above; format: binding
T4 construct: Caco-2 and LNCaP cell lines were lysed by sonication or by lysis in hypotonic buffer; endogenous in cells; host or cells: Caco-2 and LNCaP
T4 sequence (P05783 2-430 limits assumed): T3 sequence (P05783 2-430 partner limits assumed)
T4 sequence (P05787 1-483 partner): T3 sequence (P05787 1-483)
Description: as §5

Row | Compound | adsorption in carcinoma cell line Caco-2 (Caco-2 cells [1]) | Adsorption Caco-2 (Caco-2 cells [1]) | adsorption in normal cells (HEK293) (HEK293 cells [2]) | Adsorption HEK293 (HEK293 cells [2]) | adsorption in carcinoma cell line LNCaP (LNCaP cells [3]) | Adsorption LNCaP (LNCaP cells [3]) | Permeability HEK293 (HEK293 cells [4]) | Permeability Caco-2 (Caco-2 cells [5]) | detection within the cytoplasm (Caco-2 cells [5]) | Permeability LNCaP (LNCaP cells [6]) | detection within the cytoplasm (LNCaP cells [6]) | binding to amphiphysin I (Seq. ID No. 7) (Amphiphysin I) | binding to BiP (Seq. ID No. 5) (BiP) | solubility [7] | binding to cytokeratin 8 (Seq. ID No. 10) (Cytokeratin 8) | binding to keratin 18 (Seq. ID No. 9) (Keratin 18)
1 | CCCCOP(=O)(O)Cc1ccc2cc(C)ccc2n1 [Compound 3] | adsorbed | ++ (++ = 21-40%) | not adsorbed | 0 (0 = 0-10%) | adsorbed | ++++ (++++ = >60%) | 0 | + | detected within the cytoplasm | + | detected within the cytoplasm | found to bind; also recorded: bind specifically | found to bind; also recorded: bind specifically | > 10 mM | – | –
2 | CCCCOP(=O)(O)Cc1cc(CP(=O)(O)OCCCC)cc(CP(=O)(O)OCCCC)c1 [Compound 9, [3,5-Bis-(Butoxy-hydroxy-phosphorylmethyl)-benzyl]-phosphonic acid monobutyl ester] | adsorbed | ++ (++ = 21-40%) | not adsorbed | 0 (0 = 0-10%) | adsorbed | ++ (++ = 21-40%) | 0 | + | detected within the cytoplasm | + | detected within the cytoplasm | – | – | > 10 mM | found to bind; also recorded: bind specifically | found to bind; also recorded: bind specifically
3 | CCCCOP(=O)(O)Cc1c(C)c(CP(=O)(O)OCCCC)c(C)c(CP(=O)(O)OCCCC)c1C [Compound 12, [3,5-Bis-(Butoxy-hydroxy-phosphorylmethyl)-2,4,6-trimethyl-benzyl]-phosphonic acid monobutyl ester] | adsorbed | ++++ (++++ = >60%) | not adsorbed | 0 (0 = 0-10%) | adsorbed | +++ (+++ = 41-60%) | 0 | + | detected within the cytoplasm | + | detected within the cytoplasm | – | – | > 10 mM | found to bind; also recorded: bind specifically | found to bind; also recorded: bind specifically
4 | CCOP(=O)(O)Cc1ccc2cc(C)ccc2n1 [Compound 2] | adsorbed | ++ (++ = 21-40%) | not adsorbed | 0 (0 = 0-10%) | adsorbed | ++ (++ = 21-40%) | 0^b | + | detected within the cytoplasm | + | detected within the cytoplasm | found to bind; also recorded: bind specifically | found to bind; also recorded: bind specifically | > 10 mM | – | –
5 | CCOP(=O)(O)Cc1cc(CP(=O)(O)OCC)cc(CP(=O)(O)OCC)c1 [Compound 8, [3,5-Bis-(Ethoxy-hydroxy-phosphorylmethyl)-benzyl]-phosphonic acid monoethyl ester] | adsorbed | +++ (+++ = 41-60%) | not adsorbed | 0 (0 = 0-10%) | adsorbed | +++ (+++ = 41-60%) | 0 | + | detected within the cytoplasm | + | detected within the cytoplasm | – | – | > 10 mM | found to bind; also recorded: bind specifically | found to bind; also recorded: bind specifically
